Test results published in patent publication EP0494622A1, “Bridged cyclic ketal derivatives” (priority 1991, dated 1992).
≈ marks a conversion by molar mass, not a printed value. Where a name gives a salt, the structure may show the parent alone.

Assays:
squalene synthase = target: T1, squalene synthase (Rattus norvegicus, UniProt Q02769); experiment: Inhibition of squalene synthase in rat liver homogenate with [2-14C]farnesylpyrophosphate as substrate; [14C]squalene separated by TLC and counted by liquid scintillation; type: biochemical; conditions: concentration giving 50% inhibition of [14C]squalene production in a 30 minute assay, read-out: IC₅₀
T1 construct: from tissue; host or cells: rat liver homogenate
T1 sequence (Q02769 1-416): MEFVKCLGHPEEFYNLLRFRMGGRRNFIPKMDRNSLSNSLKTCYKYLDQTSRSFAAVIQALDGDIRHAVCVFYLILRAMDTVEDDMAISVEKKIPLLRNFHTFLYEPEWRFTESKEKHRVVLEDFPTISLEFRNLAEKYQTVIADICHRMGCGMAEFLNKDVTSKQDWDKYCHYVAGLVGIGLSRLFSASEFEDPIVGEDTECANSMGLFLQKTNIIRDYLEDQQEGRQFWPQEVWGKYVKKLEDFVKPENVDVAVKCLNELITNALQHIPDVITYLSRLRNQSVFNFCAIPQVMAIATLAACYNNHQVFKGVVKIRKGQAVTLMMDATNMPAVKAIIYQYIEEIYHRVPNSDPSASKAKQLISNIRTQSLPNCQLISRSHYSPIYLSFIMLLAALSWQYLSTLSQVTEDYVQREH
Protocol: Acta, Volume 877, 50-60 (1986) and modified to include measurement of cholesterol by high performance liquid chromatography (h.p.l.c.).
(§1) [¹⁴C] Squalene was separated from unreacted substrate on thin layer chromatography plates and determined by liquid scintillation counting. Inhibition of squalene synthase was quantified by incubating rat liver homogenate with various concentrations of the test compound in the presence of[2-¹⁴C] farnesylpyrophosphate. The concentration of compound giving 50% inhibition of [¹⁴C] squalene production in a 30 minute assay was taken as the IC₅₀ value. […] In practice, a series of agar plates, each having the test compound incorporated at a particular concentration, was inoculated with a standard culture of a clinically relevant pathogen, for example Candida albicans, and each plate was then incubated at 37 °C for 24 to 48 hours depending on the pathogen. The plates were then examined for the presence or absence of growth of the fungus and the appropriate MIC was noted. In this test the title compounds in Examples 19, Example 3 Compound 1 and Example 7 Compound 1 had MICs in the range of 1 to 31 µg/ml against a variety of clinically relevant pathogens.

[1] = tested on: a variety of clinically relevant pathogens; experiment: In vitro antifungal activity: minimum inhibitory concentration (MIC) on agar plates containing the test compound; type: cell-based; conditions: Candida albicans, read-out: MICs
Protocol: as §1, with “The in vitro evaluation of the anti-fungal activity of compounds of the invention can be performed by determining the minimum inhibitory concentration (MIC) which is the concentration of the test compound in a suitable medium at which growth of a particular microorganism fails to occur. […] A. […] [¹⁴C] Squalene” for “[¹⁴C] Squalene”, “was noted.” for “was noted. In this test the title compounds in Examples 19, Example 3 Compound 1 and Example 7 Compound 1 had MICs in the range of 1 to 31 µg/ml against a variety of clinically relevant pathogens.”

| SMILES | IC50 (squalene synthase) [nM] | MIC [1] [µg/mL] |
| --- | --- | --- |
| C=C(CC[C@]12OC[C@@](O)(C(=O)O)[C@](C(=O)O)(O1)[C@H](OC(=O)/C=C/[C@@H](C)C[C@@H](C)CC)[C@H]2O)[C@@H](OC(C)=O)[C@H](C)Cc1ccccc1 (relative stereo) [Example 3 Compound 1, [1S-[1α(4R*,5S*),4β,5α,6α(2E,4R*,6R*),7β]] 1-(4-Acetyloxy-5-methyl-3-methylene-6-phenylhexyl)-4,6,7-trihydroxy-2,8-dioxabicyclo [3.2.1]octane-4,5-dicarboxylic acid, 6-(4,6-dimethyl-2-octenoate)] | < 100 | 1 to 31 (≈ 1.55 to 47.9 µM) |
| C=C(CC[C@]12OC[C@@](O)(C(=O)OC)[C@](C(=O)O)(O1)[C@H](OC(=O)/C=C/[C@@H](C)C[C@@H](C)CC)[C@H]2O)[C@@H](OC(C)=O)[C@H](C)Cc1ccccc1 (relative stereo) [Example 3 Compound 2, [1S-[1α(4R*,5S*),4β,5α,6α(2E,4R*,6R*),7β]] 1-(4-acetyloxy-5-methyl-3-methylene-6-phenylhexyl)-4,6,7-trihydroxy-2,8-dioxabicyclo[3.2.1]octane-4,5-dicarboxylic acid, 6-(4,6-dimethyl-2-octenoate), 4-methyl ester] | < 100 |  |
| C=C(CC[C@]12O[C@H](CO)[C@@](O)(C(=O)O)[C@](C(=O)O)(O1)[C@H](OC(=O)/C=C/[C@@H](C)C[C@@H](C)CC)[C@H]2O)[C@@H](OC(C)=O)[C@H](C)Cc1ccccc1 (relative stereo) [Example 7 Compound 1, [1S-[1α(4R*,5S*),3α,4β,5α,6α(2E,4R*,6R*),7β]] 1-(4-Acetyloxy-5-methyl-3-methylene-6-phenylhexyl)-3-hydroxymethyl-4,6,7-trihydroxy-2,8-dioxabicyclo[3.2.1]octane-4,5-dicarboxylic acid, 6-(4,6-dimethyl-2-octenoate)] | < 100 | 1 to 31 (≈ 1.48 to 45.8 µM) |
| C=C(CC[C@]12O[C@H](CO)[C@@](O)(C(=O)OC)[C@](C(=O)O)(O1)[C@H](OC(=O)/C=C/[C@@H](C)C[C@@H](C)CC)[C@H]2O)[C@@H](OC(C)=O)[C@H](C)Cc1ccccc1 (relative stereo) [Example 7 Compound 2, [1S-[1α(4R*,5S*),3α,4β,5α,6α(2E,4R*,6R*),7β]] 1-(4-acetyloxy-5-methyl-3-methylene-6-phenylhexyl)-3-hydroxymethyl-4,6,7-trihydroxy-2,8-dioxabicyclo[3.2.1]octane-4,5-dicarboxylic acid, 6-(4,6-dimethyl-2-octenoate),4-methyl ester] | < 100 |  |
| C=C(CC[C@]12O[C@H](CO)[C@@](O)(C(=O)O)[C@](C(=O)O)(O1)[C@H](OC(=O)CC[C@@H](C)C[C@@H](C)CC)[C@H]2O)[C@@H](OC(C)=O)[C@H](C)Cc1ccccc1 (relative stereo) [Example 10, [1S-[1α(4R*,5S*),3α,4β,5α,6α(4S*,6R*),7β]] 1-(4-Acetyloxy-5-methyl-3-methylene-6-phenylhexyl)-3-hydroxymethyl-4,6,7-trihydroxy-2,8-dioxabicyclo[3.2.1]octane-4,5-dicarboxylic acid, 6-(4,6-dimethyloctanoate), dipotassium salt] | < 100 |  |
| C=C(CC[C@]12O[C@H](CO)[C@@](O)(C(=O)O)[C@](C(=O)O)(O1)[C@H](OC(=O)/C=C/[C@@H](C)C[C@@H](C)CC)[C@H]2O)[C@@H](O)[C@H](C)Cc1ccccc1 (relative stereo) [Example 11, [1S-[1α(4R*,5S*),3α,4β,5α,6α(2E,4R*,6R*),7β]] 1-(4-Hydroxy-5-methyl-3-methylene-6-phenylhexyl)-3-hydroxymethyl-4,6,7-trihydroxy-2,8-dioxabicyclo[3.2.1]octane-4,5-dicarboxylic acid, 6-(4,6-dimethyl-2-octenoate)] | < 100 |  |
| C=C(CC[C@]12O[C@H](CO)[C@@](O)(C(=O)O)[C@](C(=O)O)(O1)[C@H](OC(=O)CC[C@@H](C)C[C@@H](C)CC)[C@H]2O)[C@@H](O)[C@H](C)Cc1ccccc1 (relative stereo) [Example 25, [1S-[1α(4R*,5S*),3α,4β,5α,6α(4S*,6R*),7β]] 1-(4-Hydroxy-5-methyl-3-methylene-6-phenylhexyl)-3-hydroxymethyl-4,6,7-trihydroxy-2,8-dioxabicyclo[3.2.1]octane-4,5-dicarboxylic acid, 6-(4,6-dimethyloctanoate)] | < 100 |  |
